Consider two substances from US20240229063A1, “TRANSGENIC CORN EVENT ZM_CSM63715 AND METHODS FOR DETECTION AND USES THEREOF” (Monsanto Technology LLC, priority 2022, published 2024).

The subject of this series is Cas 12a gRNA target sites on Zea mays B73 chromosome 8. As to the kind of experiment: gRNA target site editing rate by Fragment Length Analysis in stably transformed corn plants. Conditions: LbCas12a; for Number of Plants with Target Site Edits: stably transformed corn plants. The format is in vivo. The text has this:
Agrobacterium T-DNA vectors were designed to evaluate gRNA and LbCas12a nuclease mediated cleavage at the selected target sites. Each T-DNA vector comprised 3 cassettes. The first cassette comprised a plant codon optimized LbCas12a (SEQ ID NO:33) flanked by the same nuclear localization signal sequence (NLS) at the 5′ and 3′ ends (SEQ ID:191), and was operably linked to Zea mays Ubiquitin promoter (SEQ ID NO:192) and a 3′UTR sequence from a rice lipid transfer protein (LTP) gene (SEQ ID NO:193). The second cassette was a unique gRNA cassette targeting one of the 17 targeting sites described in Table 5. The cassette comprised a Zea mays Pol III promoter operably linked to a Cas12a gRNA unit. […] The third cassette was an EPSPS expression cassette encoding a 5-enolpyruvylshikimate-3-phosphate synthase as a selectable marker for selecting transformants in the present of glyphosate.
Corn embryo explants were transformed with the vectors described above by Agrobacterium-mediated transformation. Transformed plants were selected on glyphosate. Leaf samples from regenerated plantlets were harvested, and genomic DNA was extracted for Fragment Length Analysis (FLA). […] The amplicon fragment lengths were subsequently analyzed using capillary electrophoresis, and compared to a wildtype amplicon to identify mutants that had larger or smaller amplicons due to the presence of indels. […] One μl of the PCR product was combined with 0.5 μl of the GeneScan 1200 LIZ Size Standard (Thermo Fisher, MA), 8.5 μl of formamide, and ran on ABI3730 sequencer (Thermo Fisher, MA) to detect amplicon size and analyzed for fragment length variation to identify plants with mutations at the target sites. […] NA denotes that a transformation was performed, but was not successful. gRNA activity was determined by calculating the percentage of plants that contained a target site indel edit out of the total number of plants examined.

For the substance “ZmTS10: LbCas12a gRNA targeting site ZmTS10 (target SEQ ID NO 183, spacer SEQ ID NO 204) (guide CCACAAGGCTATTCACTCCCTAT; gRNA scaffold not given here)”, the “Number of Plants with Target Site Edits” value came to 32.

“ZmTS1: LbCas12a gRNA targeting site ZmTS1 (target SEQ ID NO 174, spacer SEQ ID NO 195) (guide ACCGACTTGGGCATATATTATTT; gRNA scaffold not given here)”: the “Number of Plants with Target Site Edits” value is listed as 16. Also, the “Target Editing Rate” value (percentage of plants with a target site indel edit out of plants examined) turned out to be 11%.
